# Measured values as given in US20160122320A1, “USEFUL COMBINATIONS OF MONOBACTAM ANTIBIOTICS WITH BETA-LACTAMASE INHIBITORS” (Basilea Pharmaceutica AG, priority 2005, published 2016).
# Structures can show the parent of a compound that is named as a salt.
# Experiments:
# Assay in all cases: MIC, NCCLS broth microdilution
# Assay type in all cases: cell-based
# [1] = test system: Acinetobacter sp. J2; settings: Acinetobacter sp. J2; MIC of antibiotic compound 1 with the labelled bridged monobactam of formula II and clavulanate, 4 mg/L each
# [2] = test system: Pseudomonas aeruginosa MK1184; settings: MIC of antibiotic compound 1 with the labelled bridged monobactam of formula II and clavulanate, 4 mg/L each
# [3] = test system: Pseudomonas aeruginosa 1973E; settings: MIC of antibiotic compound 1 with the labelled bridged monobactam of formula II and clavulanate, 4 mg/L each
# Outline: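 Growth inhibition read by eye after overnight incubation (30° C. or 37° C.) defines the MIC, using NCCLS M7-A5 broth microdilution with ≤1% DMSO. When combinations were tested, only the formula I compound was titrated and each partner was fixed at 4 μg/mL.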
# [4] = test system: Enterobacter cloacae P99; settings: MIC of antibiotic compound 1 with the labelled bridged monobactam of formula II and clavulanate, 4 mg/L each
# [5] = test system: Klebsiella pneumoniae CF104; settings: MIC of antibiotic compound 1 with the labelled bridged monobactam of formula II and clavulanate, 4 mg/L each
# Description: Antimicrobial activity of the compounds and of their combinations was determined against a selection of organisms according to the standard procedures described by the National Committee for Clinical Laboratory Standards (National Committee for Clinical Laboratory. Standards (2000). Methods for Dilution Antimicrobial Susceptibility Tests for Bacteria That Grow Aerobically-Fifth Edition: Approved Standard M7-A5. NCCLS, Wayne, Pa., USA).
# In all cases the final concentration of DMSO incubated with the bacteria is less than or equal to 1%. […] Plates were incubated overnight at an appropriate temperature (30° C. or 37° C.) and optical densities assessed by eye. The MIC value is defined as the lowest compound concentration completely inhibiting visible growth of the test organism. When combinations between compounds of formula I with compounds of formula II and are evaluated the compounds of formula I are tested in dilution series as described above while the compounds of formula II and III-XIII were present in all wells at a constant concentration of 4 μg/mL each.
# [6] = test system: Serratia marcescens S6; settings: MIC of antibiotic compound 1 with the labelled bridged monobactam of formula II and clavulanate, 4 mg/L each
# [7] = test system: Stenotrophomonas malthophilia 1AC736; settings: Stenotrophomonas malthophilia 1AC736; MIC of antibiotic compound 1 with the labelled bridged monobactam of formula II and clavulanate, 4 mg/L each
SMILES,MIC of antibiotic at fixed inhibitor concentration (4 mg/L) [1] [µg/mL],MIC of antibiotic at fixed inhibitor concentration (4 mg/L) [2] [µg/mL],MIC of antibiotic at fixed inhibitor concentration (4 mg/L) [3] [µg/mL],MIC of antibiotic at fixed inhibitor concentration (4 mg/L) [4] [µg/mL],MIC of antibiotic at fixed inhibitor concentration (4 mg/L) [5],MIC of antibiotic at fixed inhibitor concentration (4 mg/L) [6] [µg/mL],MIC of antibiotic at fixed inhibitor concentration (4 mg/L) [7] [µg/mL]
"Nc1ccc[n+](CC(=O)N2CC[C@@H]3[C@H]2C(=O)N3S(=O)(=O)[O-])c1 [Compound 107, (1S,5R)-2-[2-(3-aminopyridinium)acetyl]-7-oxo-2,6-diazabicyclo[3.2.0]heptane-6-sulfonate, inner salt]",8,8,4,32,1 µg/mL,0.125,0.125
"NC(=O)CNC(=O)c1ccc[n+](CC(=O)N2CC[C@@H]3[C@H]2C(=O)N3S(=O)(=O)[O-])c1 [Compound 108, (1S,5R)-2-(2-{3-[N-(carbamoylmethyl)carbamoyl]pyridinium}acetyl)-7-oxo-2,6-diazabicyclo[3.2.0]heptane-6-sulfonate, inner salt]",>32,>32,4,4,1 µg/mL,0.25,0.125
"O=C(NC1CC1)c1ccc[n+](CC(=O)N2CC[C@@H]3[C@H]2C(=O)N3S(=O)(=O)[O-])c1 [Compound 109, (1S,5R)-2-{2-[3-(N-cyclopropylcarbamoyl)pyridinium]acetyl}-7-oxo-2,6-diazabicyclo[3.2.0]heptane-6-sulfonate, inner salt]",4,16,4,32,0.5 µg/mL,0.125,0.125
"NC(=O)c1cc[n+](CC(=O)N2CC[C@@H]3[C@H]2C(=O)N3S(=O)(=O)[O-])cc1C(N)=O [Compound 110, (1S,5R)-2-[2-(3,4-dicarbamoylpyridinium)acetyl]-7-oxo-2,6-diazabicyclo[3.2.0]heptane-6-sulfonate, inner salt]",2,32,4,>32,0.125 µg/mL,0.25,0.125
"Cc1ccc(C(N)=O)c[n+]1CC(=O)N1CC[C@@H]2[C@H]1C(=O)N2S(=O)(=O)[O-] [Compound 111, (1S,5R)-2-[2-(3-carbamoyl-6-methylpyridinium)acetyl]-7-oxo-2,6-diazabicyclo[3.2.0]heptane-6-sulfonate, inner salt]",4,8,4,4,<0.06 µg/mL,0.25,0.125
"CN(C)c1cc[n+](CC(=O)N2CC[C@@H]3[C@H]2C(=O)N3S(=O)(=O)[O-])cc1 [Compound 112, (1S,5R)-2-{2-[4-(dimethylamino)pyridinium]acetyl}-7-oxo-2,6-diazabicyclo[3.2.0]heptane-6-sulfonate, inner salt]",16,>32,8,>32,<=0.06 mg/L,0.5,0.125
"CC(C)c1cc[n+](CC(=O)N2CC[C@@H]3[C@H]2C(=O)N3S(=O)(=O)[O-])cc1 [Compound 113, (1S,5R)-2-{2-[4-(isopropyl)pyridinium]acetyl}-7-oxo-2,6-diazabicyclo[3.2.0]heptane-6-sulfonate, inner salt]",>32,>32,4,32,0.125 µg/mL,0.25,0.25
"COC(=O)c1cc(C)c[n+](CC(=O)N2CC[C@@H]3[C@H]2C(=O)N3S(=O)(=O)[O-])c1 [Compound 114, (1S,5R)-2-{2-[3-(methoxycarbonyl)-5-methylpyridinium]acetyl}-7-oxo-2,6-diazabicyclo[3.2.0]heptane-6-sulfonate, inner salt]",>32,16,4,32,0.125 µg/mL,0.25,0.125
"COC(=O)c1ccc[n+](CC(=O)N2CC[C@@H]3[C@H]2C(=O)N3S(=O)(=O)[O-])c1C [Compound 115, (1S,5R)-2-{2-[3-(methoxycarbonyl)-2-methylpyridinium]acetyl}-7-oxo-2,6-diazabicyclo[3.2.0]heptane-6-sulfonate, inner salt]",>32,16,4,32,0.125 µg/mL,0.25,0.125
